For 17 compounds, inhibition and Activity results are on record in ChEMBL document CHEMBL1138146, “Analysis of anti-PDE3 activity of 2-morpholinochromone derivatives reveals multiple mechanisms of anti-platelet activity” (Bioorg Med Chem Lett, 2006).

The target in assay [1] is cGMP-inhibited 3',5'-cyclic phosphodiesterase 3A (Homo sapiens) (UniProt Q14432). In words: Inhibition of PDE3A at 50 uM.
For a further assay, the species on record is Homo sapiens. Description: Inhibition of PAR4AP induced platelet aggregation at 25 uM. The format is functional.
The target of assay [2] is Phosphodiesterase 3 (Homo sapiens) (UniProt Q14432+Q13370). In words: Inhibition of PDE3 at 6.25 uM. The class given is protein assay.

Calls of active or inactive are those of the source. The calls are words filed in the database; no cut-off is given here.

Chain of cGMP-inhibited 3',5'-cyclic phosphodiesterase 3A (Homo sapiens) (Q14432 whole entry): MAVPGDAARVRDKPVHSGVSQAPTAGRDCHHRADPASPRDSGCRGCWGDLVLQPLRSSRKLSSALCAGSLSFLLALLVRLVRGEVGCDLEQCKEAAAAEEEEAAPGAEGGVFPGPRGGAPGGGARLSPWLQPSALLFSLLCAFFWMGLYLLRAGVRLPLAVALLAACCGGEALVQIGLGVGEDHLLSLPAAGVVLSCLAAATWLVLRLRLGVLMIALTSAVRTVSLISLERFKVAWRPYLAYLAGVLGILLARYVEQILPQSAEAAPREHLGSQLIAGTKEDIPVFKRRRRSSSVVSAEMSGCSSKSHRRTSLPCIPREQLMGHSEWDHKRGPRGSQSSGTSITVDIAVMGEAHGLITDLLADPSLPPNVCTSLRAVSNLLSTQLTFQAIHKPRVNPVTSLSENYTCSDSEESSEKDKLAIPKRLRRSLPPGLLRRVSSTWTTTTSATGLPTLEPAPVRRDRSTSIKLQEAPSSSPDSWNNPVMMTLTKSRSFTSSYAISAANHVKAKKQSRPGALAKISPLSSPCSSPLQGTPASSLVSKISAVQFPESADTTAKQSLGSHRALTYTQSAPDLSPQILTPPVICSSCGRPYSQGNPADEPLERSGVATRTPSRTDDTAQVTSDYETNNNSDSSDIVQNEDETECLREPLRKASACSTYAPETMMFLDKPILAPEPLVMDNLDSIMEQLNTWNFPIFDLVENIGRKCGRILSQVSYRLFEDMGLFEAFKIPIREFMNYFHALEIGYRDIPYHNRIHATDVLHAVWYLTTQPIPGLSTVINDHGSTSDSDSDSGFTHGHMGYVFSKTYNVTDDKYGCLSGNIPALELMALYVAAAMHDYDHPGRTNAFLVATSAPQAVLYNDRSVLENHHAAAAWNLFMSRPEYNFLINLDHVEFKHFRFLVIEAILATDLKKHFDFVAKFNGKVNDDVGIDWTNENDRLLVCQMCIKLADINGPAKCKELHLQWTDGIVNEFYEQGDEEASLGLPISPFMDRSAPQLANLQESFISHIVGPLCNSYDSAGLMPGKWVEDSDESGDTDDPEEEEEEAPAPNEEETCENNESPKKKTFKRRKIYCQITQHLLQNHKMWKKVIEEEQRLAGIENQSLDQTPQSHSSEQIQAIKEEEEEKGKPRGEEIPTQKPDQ

By inhibition is commonly meant the drop in the measured response relative to a control, in per cent. Consider `Cc1c(C#Cc2ccccc2)ccc2c(=O)cc(N3CCOCC3)oc12`, for which the inhibition in assay [1] amounted to 44%.

`O=c1cc(N2CCOCC2)oc2cc(OCc3ccccc3)ccc12`: in assay [1], the inhibition turned out to be 49%.

As for `O=c1cc(N2CCOCC2)oc2cc(Oc3ccccc3)ccc12`, the inhibition in assay [1] worked out at 43%.

For `Cc1c(OCc2ccccc2)ccc2c(=O)cc(N3CCOCC3)oc12`, in the assay listed under Homo sapiens, the result was Active. Besides, the inhibition in assay [1] is 86%.

Consider `O=c1cc(N2CCOCC2)oc2c(-c3ccccc3)cccc12`, for which, in assay [1], the inhibition was 35%.

Regarding `Cc1c(-c2ccccc2)ccc2c(=O)cc(N3CCOCC3)oc12`, the inhibition in assay [1] amounted to 83%.

On to `COc1cc(-c2ccc(Cl)cc2)c2oc(N3CCOCC3)cc(=O)c2c1`, for which the inhibition in assay [1] stood at 63%.

As to `Cc1c(OCc2cccnc2)ccc2c(=O)cc(N3CCOCC3)oc12`, the inhibition in assay [1] was found to be 68%; in assay [2], 46%.

As for `O=c1cc(N2CCOCC2)oc2c(OCc3cccnc3)cccc12`, the inhibition in assay [1] amounted to 5%.

`O=c1cc(N2CCOCC2)oc2c(C#Cc3ccccc3)cccc12`: the inhibition in assay [1] is 60%.

As for `Cc1c(Oc2ccccc2)ccc2c(=O)cc(N3CCOCC3)oc12`, the inhibition in assay [1] worked out at 78%.

Regarding `O=c1cc(N2CCOCC2)oc2c(OCc3ccccc3)cccc12`, in assay [1], the inhibition is -7%.

`O=c1cc(N2CCOCC2)oc2cc(-c3ccccc3)ccc12`: the inhibition in assay [1] was determined as 50%.

For the compound `O=c1cc(N2CCOCC2)oc2cc(C#Cc3ccccc3)ccc12`, the inhibition in assay [1] is 70%.

Take `Cc1c(OCCN2CCN(C)CC2)ccc2c(=O)cc(N3CCOCC3)oc12`: the inhibition in assay [1] is -10%.

`O=c1cc(N2CCOCC2)oc2c(CCc3ccccc3)cccc12`: the inhibition in assay [1] was found to be 28%.

Regarding `O=c1cc(N2CCOCC2)oc2cc(OCc3cccnc3)ccc12`, the inhibition in assay [1] was determined as 19%.
